Entries after “also recorded” stand apart in the source; their conditions may differ.
Key:
[1] = tested on: 6 Hz limbic seizures; assay: 6 Hz limbic (psychomotor) seizure test; type: in vivo, CF-1 mice
Source text: Mice not displaying limbic seizures were considered protected.

[2] = tested on: corneal kindling; assay: Mouse corneal kindling acquisition; type: in vivo, CF#1 mice; details: 4 mg/kg i.p. twice daily
Procedure: CF#1 mice were randomized to receive either vehicle (0.9% saline) or NAX-5055. Mice in the NAX-5055 group received two doses of NAX-5055 twelve (12 h) and 1 h prior to their first kindling stimulation. One hour (1 h) prior to each subsequent stimulation, mice in the NAX-5055 treated group received another dose of NAX-5055 (4 mg/kg, i.p.). Mice were stimulated twice daily for 16 days. Results are expressed as the mean seizure score per stimulation. As noted above, the results for the NAX-5055 treated mice segregated into two populations; i.e., sensitive (green line) and insensitive (blue line).
Daily electrical stimulation via the cornea results in a stable kindled state within 15-20 days. This is an ideal model to initially assess the ability of selected galanin analogs to prevent kindling acquisition because the amount of peptide required is much lower than what is required for a rat kindling study. Those compounds found to be effective in preventing the acquisition of kindling are subsequently evaluated in a more traditional rat kindling model; i.e., amygdala kindled rat. For the proposed studies two groups of mice (n=8 mice per group) are randomized to receive either vehicle or peptide prior to each kindling stimulation. […] At the time to peak effect (obtained from the 6 Hz study), they are stimulated via corneal electrodes with a subconvulsive current (50 Hz, 3 mA, for 3.0 sec) and observed for the presence or absence of seizure activity. Seizure activity is scored according to the criteria established by Racine et al., (1972). Animals receive two stimulations per day until they display their first Stage 5 behavioral seizure and then once daily until they display stable secondarily generalized seizures (5 consecutive Stage 4-5 seizures). Peptide treatment continues in the experimental group until the point that the control mice become fully kindled. At this point, mice in both groups are permitted a one-week stimulus and treatment-free week. On the 8th day, mice in both groups are stimulated in the absence of peptide or vehicle and their seizure score recorded.
The ability of the blood-brain-barrier penetrant galanin-based neuropeptide NAX-5055 to prevent the development of corneal kindling was studied in CF#1 mice. The mouse corneal kindling model is a non-intrusive animal model of partial epilepsy wherein mice receive an initially subconvulsive current (3 mA) for 3 seconds via corneal electrodes twice daily for several days. Vehicle treated mice usually require between 12-16 days to reach a stable Stage 5 seizure; i.e., a secondary generalized focal seizure. In the present study, 16 mice were randomized to one of two experimental groups; saline or NAX-5055. […] Following stimulation seizure activity was scored on a scale of 0-5 as established by Racine (1972).

Sar-Trp-Thr-Leu-Asn-Ser-Ala-Gly-Tyr-Leu-Leu-Gly-Pro-Lys-Lys-(Lys-palm)-Lys-NH2 [NAX 5055]
activity in pharmaco-resistant seizure model ([1]; 4 mg/kg): active | % Protection at 1 hour ([1]; 4 mg/kg, i.p., 1 h, model not printed at tables, ED50s of same analogs called 6 Hz model): 100% | % Protection at 2 hours ([1]; 4 mg/kg, i.p., 2 h): 100% | % Protection at 4 hours ([1]; 4 mg/kg, i.p., 4 h): 0% | potency and efficacy compared with native peptide ([1]; 6 Hz (32 mA) test): more potent and more efficacious | ED50 in the 6 Hz model ([1]; i.p.): 0.8 mg/kg | dose in parentheses in Table 14 (ED50) ([1]; i.p., not labelled in table): 0.8 mg/kg | ED50 following i.c.v. administration ([1]; intracerebroventricular, 6 Hz (32 mA) test, FIG. 22): 0.07 nmol | anticonvulsant activity following subcutaneous administration ([1]; s.c., 32 mA, 6 Hz, 60 min after injection): preserved; also recorded: retained | kindling acquisition [2]: can delay kindling acquisition | more stimulations to reach Stage 2 and Stage 3 seizures, NAX-5055 sensitive group [2]: 35-40% | stimulations required to reach a Stage 1 seizure, NAX-5055 sensitive group [2]: two times more stimulations | mice of NAX-5055 sensitive group that reached Stage 5 seizures ([2]; sensitive n=3 of 8): none
